From patent US20180273538A1, “PYRROLO[2,3-d]PYRIMIDINE DERIVATIVES, A PROCESS FOR THEIR PREPARATION AND PHARMACEUTICAL COMPOSITIONS CONTAINING THEM” (LES LABORATOIRES SERVIER, priority 2015, published 2018) come the findings set out here.

For orientation: IC50 means the point on the concentration scale where inhibition reaches its midpoint.

The first assay addresses T1, His-TEV-DYRK1A Kinase domain (aa127-485) (Homo sapiens, UniProt Q13627).
T1 construct: His-TEV-DYRK1A Kinase domain (aa127-485); His (N); TEV cleavage site (N)
Kind of assay: Kinase ADP assay (ADP Hunter Plus). Type of assay: biochemical.
Settings: not given
In the case of `COc1cc(F)ccc1CNc1nc(C)nc2[nH]cc(-c3ccnc(N)c3)c12` [Example 84, 5-(2-aminopyridin-4-yl)-N-(4-fluoro-2-methoxybenzyl)-2-methyl-7H-pyrrolo[2,3-d]pyrimidin-4-amine], the IC50 is 0.006 µM.

On to `Cc1nc(NCc2cccc3c2OCO3)c2c(-c3ccnc(N)c3)c[nH]c2n1` [Example 127, 5-(2-aminopyridin-4-yl)-N-(1,3-benzodioxol-4-ylmethyl)-2-methyl-7H-pyrrolo[2,3-d]pyrimidin-4-amine], for which the IC50 was determined as 0.011 µM.

As to `Cc1nc(NCc2cccc3c2OCO3)c2c(-c3cc(N)nc(N)c3)c[nH]c2n1` [Example 128, 4-{4-[(1,3-benzodioxol-4-ylmethyl)amino]-2-methyl-7H-pyrrolo[2,3-d]pyrimidin-5-yl}pyridine-2,6-diamine], the IC50 amounted to 0.009 µM.

As for `COC1CCCN(c2nc(C)nc3[nH]cc(-c4cc(N)nc(N)c4)c23)C1` (stereo not shown) [Example 144, 4-[4-(3-methoxypiperidin-1-yl)-2-methyl-7H-pyrrolo[2,3-d]pyrimidin-5-yl]pyridine-2,6-diamine], the IC50 was 0.545 µM.

In the case of `COc1cccc(C(F)(F)F)c1CNc1nc(C)nc2[nH]cc(-c3ccncc3)c12` [Example 145, N-[2-methoxy-6-(trifluoromethyl)benzyl]-2-methyl-5-(pyridin-4-yl)-7H-pyrrolo[2,3-d]pyrimidin-4-amine], the IC50 is 0.042 µM.

Consider `COc1cccc(C(F)(F)F)c1CNc1nc(C)nc2[nH]cc(-c3ccnc(C)c3)c12` [Example 146, N-[2-methoxy-6-(trifluoromethyl)benzyl]-2-methyl-5-(2-methylpyridin-4-yl)-7H-pyrrolo[2,3-d]pyrimidin-4-amine], for which the IC50 was 0.172 µM.

Regarding `Nc1cc(-c2c[nH]c3nc(C4CC4)nc(NCc4c(F)cccc4F)c23)ccn1` [Example 147, 5-(2-aminopyridin-4-yl)-2-cyclopropyl-N-(2,6-difluorobenzyl)-7H-pyrrolo[2,3-d]pyrimidin-4-amine], the IC50 was found to be 0.17 µM.

For the compound `C=C(C)c1nc(NCc2c(F)cccc2F)c2c(-c3ccnc(N)c3)c[nH]c2n1` [Example 149, 5-(2-aminopyridin-4-yl)-N-(2,6-difluorobenzyl)-2-(prop-1-en-2-yl)-7H-pyrrolo[2,3-d]pyrimidin-4-amine], the IC50 was determined as 0.734 µM.

Take `C=Cc1nc(NCc2c(F)cccc2F)c2c(-c3ccnc(N)c3)c[nH]c2n1` [Example 151, 5-(2-aminopyridin-4-yl)-N-(2,6-difluorobenzyl)-2-ethenyl-7H-pyrrolo[2,3-d]pyrimidin-4-amine]: the IC50 worked out at 0.028 µM.

Turning to `Nc1cc(-c2c[nH]c3nc(C#CC4CC4)nc(NCc4c(F)cccc4F)c23)ccn1` [Example 152, 5-(2-aminopyridin-4-yl)-2-(cyclopropylethynyl)-N-(2,6-difluorobenzyl)-7H-pyrrolo[2,3-d]pyrimidin-4-amine], the half-maximal inhibitory concentration (IC50) came out at 0.012 µM.

Take `C#Cc1nc(-c2ccc3c(c2)OCO3)c2c(-c3cc(N)nc(N)c3)c[nH]c2n1` [Example 155, 4-[4-(1,3-benzodioxol-5-yl)-2-ethynyl-7H-pyrrolo[2,3-d]pyrimidin-5-yl]pyridine-2,6-diamine]: the IC50 turned out to be 0.024 µM.

`C#Cc1nc(-c2ccc3c(c2)OCO3)c2c(-c3ccnc(N)c3)c[nH]c2n1` [Example 156, 4-[4-(1,3-benzodioxol-5-yl)-2-ethynyl-7H-pyrrolo[2,3-d]pyrimidin-5-yl]pyridin-2-amine]: the IC50 was determined as 0.029 µM.

Consider `N#Cc1nc(NCc2c(F)cccc2F)c2c(-c3ccnc(N)c3)c[nH]c2n1` [Example 157, 5-(2-aminopyridin-4-yl)-4-[(2,6-difluorobenzyl)amino]-7H-pyrrolo[2,3-d]pyrimidine-2-carbonitrile], for which the IC50 came to 0.26 µM.

On to `Cc1nc(CCc2ccccc2)c2c(-c3ccnc(N)c3)c[nH]c2n1` [Example 160], for which the IC50 turned out to be 0.184 µM.

In the case of `COc1cc(F)cc(-c2nc(C)nc3[nH]cc(-c4ccnc(N)c4)c23)c1` [Example 162, 4-[4-(3-fluoro-5-methoxyphenyl)-2-methyl-7H-pyrrolo[2,3-d]pyrimidin-5-yl]pyridin-2-amine], the IC50 turned out to be 0.014 µM.

`Cc1nc(-c2ccc(CN3CCCC3)cc2)c2c(-c3ccnc(N)c3)c[nH]c2n1` [Example 165]: the IC50 came out at 0.301 µM.

With `Cc1nc(-c2cccc(C(F)(F)F)c2)c2c(-c3ccnc(N)c3)c[nH]c2n1` [Example 168, 4-{2-methyl-4-[3-(trifluoromethyl)phenyl]-7H-pyrrolo[2,3-d]pyrimidin-5-yl}pyridin-2-amine], the IC50 turned out to be 0.01 µM.

For the compound `Cc1nc(-c2ccc(CN3CCN(C)CC3)cc2)c2c(-c3ccnc(N)c3)c[nH]c2n1` [Example 169, 4-(2-methyl-4-{4-[(4-methylpiperazin-1-yl)methyl]phenyl}-7H-pyrrolo[2,3-d]pyrimidin-5-yl)pyridin-2-amine], the IC50 was 0.216 µM.

Turning to `Cc1nc(-c2cncc(F)c2)c2c(-c3ccnc(N)c3)c[nH]c2n1` [Example 170], the 50% inhibitory concentration (IC50) turned out to be 1.82 µM.

Turning to `Cc1nc(-c2cccc(N3CCCC3)c2)c2c(-c3ccnc(N)c3)c[nH]c2n1` [Example 171], the IC50 was 0.033 µM.

Consider `CCOc1ccc(-c2nc(C)nc3[nH]cc(-c4ccnc(N)c4)c23)cc1` [Example 172], for which the concentration for half-maximal inhibition (IC50) was found to be 0.037 µM.

`Cc1nc(-c2cccc(OCCCN3CCOCC3)c2)c2c(-c3ccnc(N)c3)c[nH]c2n1` [Example 174, 4-(2-methyl-4-{3-[3-(morpholin-4-yl)propoxy]phenyl}-7H-pyrrolo[2,3-d]pyrimidin-5-yl)pyridin-2-amine]: the IC50 was 0.07 µM.

As to `Cc1nc(-c2ccc(C#N)c(F)c2)c2c(-c3ccnc(N)c3)c[nH]c2n1` [Example 175], the IC50 turned out to be 0.146 µM.

As to `Cc1nc(CN2CCC(F)(F)C2)c2c(-c3ccnc(N)c3)c[nH]c2n1` [Example 176], the IC50 is 0.196 µM.

For `Cc1nc(CN2CCCC(F)(F)C2)c2c(-c3ccnc(N)c3)c[nH]c2n1` [Example 177], the IC50 stood at 0.532 µM.

On to `Cc1nc(-c2cc(F)cc(F)c2)c2c(-c3ccnc(N)c3)c[nH]c2n1` [Example 180], for which the IC50 came out at 0.079 µM.

For the compound `Cc1nc(C2CCc3ccccc3C2)c2c(-c3ccnc(N)c3)c[nH]c2n1` (stereo not shown) [Example 188], the IC50 was 0.07 µM.

Regarding `Cc1nc([C@H]2CCc3ccccc3C2)c2c(-c3ccnc(N)c3)c[nH]c2n1` [Example 189], the IC50 is 0.062 µM.

Turning to `Cc1nc([C@@H]2CCc3ccccc3C2)c2c(-c3ccnc(N)c3)c[nH]c2n1` [Example 190], the half-inhibitory concentration (IC50) worked out at 0.419 µM.

For `Cc1nc(COc2ccccc2C(F)(F)F)c2c(-c3ccnc(N)c3)c[nH]c2n1` [Example 193, 4-(2-methyl-4-{[2-(trifluoromethyl)phenoxy]methyl}-7H-pyrrolo[2,3-d]pyrimidin-5-yl)pyridin-2-amine], the 50% inhibitory concentration (IC50) stood at 0.116 µM.

On to `COc1ccccc1C#Cc1nc(C)nc2[nH]cc(-c3ccnc(N)c3)c12` [Example 197], for which the IC50 was found to be 0.009 µM.

Take `Cc1nc(-c2cccc(OCCCN3CCCCC3)c2)c2c(-c3ccnc(N)c3)c[nH]c2n1` [Example 199]: the 50% inhibitory concentration (IC50) stood at 0.148 µM.

`Cc1nc(-c2cccc(OCCCN3CCN(C)CC3)c2)c2c(-c3ccnc(N)c3)c[nH]c2n1` [Example 200]: the 50% inhibitory concentration (IC50) was 0.027 µM.

For `Cc1nc(-c2cccc(OCCCl)c2)c2c(-c3ccnc(N)c3)c[nH]c2n1` [Example 201], the IC50 was found to be 0.012 µM.

As for `Cc1nc(-c2cccc(OCCN3CCCC3)c2)c2c(-c3ccnc(N)c3)c[nH]c2n1` [Example 202], the concentration for half-maximal inhibition (IC50) came to 0.144 µM.

On to `Cc1nc(-c2cccc(OCCN(C)C)c2)c2c(-c3ccnc(N)c3)c[nH]c2n1` [Example 203], for which the IC50 was 0.155 µM.

In the case of `Cc1nc(-c2cccc(OCCN3CCOCC3)c2)c2c(-c3ccnc(N)c3)c[nH]c2n1` [Example 204], the IC50 was found to be 0.089 µM.

In the case of `Cc1cc(-c2c[nH]c3nc(C)nc(NCc4c(F)cccc4F)c23)nc(N)n1` [Example 205, 5-(2-amino-6-methylpyrimidin-4-yl)-N-(2,6-difluorobenzyl)-2-methyl-7H-pyrrolo[2,3-d]pyrimidin-4-amine], the IC50 was 0.055 µM.

As to `Cc1nc(-c2ccc3c(c2)OC(F)(F)O3)c2c(-c3ccnc(N)n3)c[nH]c2n1` [Example 210, 4-[4-(2,2-difluoro-1,3-benzodioxol-5-yl)-2-methyl-7H-pyrrolo[2,3-d]pyrimidin-5-yl]pyrimidin-2-amine], the IC50 turned out to be 0.05 µM.

As to `C#Cc1nc(N2CCc3ccccc3C2)c2c(-c3ccnc(N)n3)c[nH]c2n1` [Example 211, 4-[4-(3,4-dihydroisoquinolin-2(1H)-yl)-2-ethynyl-7H-pyrrolo[2,3-d]pyrimidin-5-yl]pyrimidin-2-amine], the concentration for half-maximal inhibition (IC50) came to 0.027 µM.

As for `Cc1nc(NCc2c(F)cccc2F)c2c(-c3cc(N)ncn3)c[nH]c2n1` [Example 212, 5-(6-aminopyrimidin-4-yl)-N-(2,6-difluorobenzyl)-2-methyl-7H-pyrrolo[2,3-d]pyrimidin-4-amine], the 50% inhibitory concentration (IC50) amounted to 0.009 µM.

For the compound `Cc1cc(-c2cncc(F)c2)c2c(-c3ccnc(N)c3)c[nH]c2n1` [Example 214, 4-[4-(5-fluoropyridin-3-yl)-6-methyl-1H-pyrrolo[2,3-b]pyridin-3-yl]pyridin-2-amine], the half-maximal inhibitory concentration (IC50) was determined as 0.242 µM.

`N#Cc1cc(-c2ccc3c(c2)OCO3)c2c(-c3ccnc(N)c3)c[nH]c2n1` [Example 223, 3-(2-aminopyridin-4-yl)-4-(1,3-benzodioxol-5-yl)-1H-pyrrolo[2,3-b]pyridine-6-carbonitrile]: the IC50 is 0.043 µM.

In the case of `Cc1cc(-c2ccc3c(c2)N(C)CCO3)c2c(-c3ccnc(N)c3)c[nH]c2n1` [Example 225, 4-[6-methyl-4-(4-methyl-3,4-dihydro-2H-1,4-benzoxazin-6-yl)-1H-pyrrolo[2,3-b]pyridin-3-yl]pyridin-2-amine], the IC50 worked out at 0.037 µM.

A further assay deals with T2, phospho-Ser520-DYRK1A (Homo sapiens, UniProt Q13627).
T2 construct: full-length, wild-type human DYRK1A (NM_001396) with an HA tag; expressed in transfected cells; host or cells: human U2-OS osteosarcoma cells, pcDNA3.1 plasmid
The assay is described as follows: Cellular DYRK1A autophosphorylation assay in U2-OS cells. The following applies: 5 hours exposure, read-out: IC50 (μM) P-Ser520-Dyrk1A-Cell assay. The class given is cell-based.
For `COc1cc(F)ccc1CNc1nc(C)nc2[nH]cc(-c3ccnc(N)c3)c12` [Example 84, 5-(2-aminopyridin-4-yl)-N-(4-fluoro-2-methoxybenzyl)-2-methyl-7H-pyrrolo[2,3-d]pyrimidin-4-amine], the IC50 worked out at 0.0097 µM.

With `Cc1nc(NCc2cccc3c2OCO3)c2c(-c3ccnc(N)c3)c[nH]c2n1` [Example 127, 5-(2-aminopyridin-4-yl)-N-(1,3-benzodioxol-4-ylmethyl)-2-methyl-7H-pyrrolo[2,3-d]pyrimidin-4-amine], the IC50 is 0.0169 µM.

With `Cc1nc(NCc2cccc3c2OCO3)c2c(-c3cc(N)nc(N)c3)c[nH]c2n1` [Example 128, 4-{4-[(1,3-benzodioxol-4-ylmethyl)amino]-2-methyl-7H-pyrrolo[2,3-d]pyrimidin-5-yl}pyridine-2,6-diamine], the IC50 was 0.0093 µM.

Turning to `COc1cccc(C(F)(F)F)c1CNc1nc(C)nc2[nH]cc(-c3ccncc3)c12` [Example 145, N-[2-methoxy-6-(trifluoromethyl)benzyl]-2-methyl-5-(pyridin-4-yl)-7H-pyrrolo[2,3-d]pyrimidin-4-amine], the IC50 amounted to 0.471 µM.

With `Nc1cc(-c2c[nH]c3nc(C#CC4CC4)nc(NCc4c(F)cccc4F)c23)ccn1` [Example 152, 5-(2-aminopyridin-4-yl)-2-(cyclopropylethynyl)-N-(2,6-difluorobenzyl)-7H-pyrrolo[2,3-d]pyrimidin-4-amine], the IC50 worked out at 0.0101 µM.
